Assay results as given in patent US20050234113A1, “Antioxidant and radical scavenging activity of synthetic analogs of desferrithiocin” (University of Florida Research Foundation, Inc., priority 2002, published 2005).
Where “and” joins values, the source holds several entries; their conditions need not be identical. Identical values can stand only once. Entries after “also recorded” stand apart in the source; their conditions may differ. Like-named read-outs stand apart in the source and are kept apart here. Marks after values point to notes of the source that are not given here.

Experiments:
iron [1] = settings: cited from earlier work
[2] = Prevention of iron-mediated oxidation of ascorbate (ascorbate-mediated reduction of Fe(III)); settings: ascorbate 100 μM, FeCl3 30 μM, pH 7.4, ligand/Fe ratios 0-3, 40 min
iron [3] = assay: Iron clearance in the iron-overloaded Cebus apella monkey; type: in vivo; settings: 300 μmol/kg sc, as sodium salt
Description: The monkeys were iron overloaded with intravenous iron dextran to provide about 500 mg iron per kg body weight. The serum transferrin iron saturation rose to between 70 and 80%. At least twenty half-lives, sixty days, elapsed before any of the animals were used in experiments evaluating iron-chelating agents.
Fecal and urine samples were collected at 24 hour intervals and processed. Briefly, the collections began 4 days prior to the administration of the test drug and continued for an additional 5 days after the drug was given. Iron concentrations were determined by flame atomic absorption spectroscopy.
(§1) The iron chelators were solubilized in 40% Cremophor RH-40/water (v/v) and given orally and subcutaneously to the rats at the doses shown in Table 4. In the primates, DFO was dissolved in sterile H2O at a concentration of 50 or 100 mg/mL and given orally or subcutaneously at a volume of 1 ml/kg. The desferrithiocin analogues were solubilized in 40% Cremophor RH-40/water (v/v) and given orally to the monkeys at the doses shown in Table 4. However, the desferrithiocin analogues were administered subcutaneously as either a suspension in distilled H2O or as their sodium salts in solution as indicated in Table 4.
(§2) Iron clearance studies were carried out both in the non iron-overloaded, bile duct-cannulated rodent model and in the iron-overloaded Cebus apella monkey, and the results are reported as iron clearing efficiency (Table 4). This number is generated by dividing the net iron clearance [total iron excretion (bile or stool plus urine) minus background] by the theoretical iron clearance and multiplying by 100. The theoretical iron clearance is based on a 2:1 metal complex stoichiometry for 4′-(HO)-DADMDFT, a 1:1 stoichiometry for DFO, and a 1:1 stoichiometry for BDU, as shown in the Job's plot (FIG. 5). Data are presented as the mean±the standard error of the mean. The drugs were administered both orally (po) and subcutaneously (sc) to the rodents and primates; the positive control was DFO.

iron [4] = assay: Iron clearance in the non iron-overloaded, bile duct-cannulated rodent model; type: in vivo, Sprague-Dawley rats
Description: Briefly, male Sprague-Dawley rats averaging 450 g were housed in Nalgene plastic metabolic cages during the experimental period and given free access to water. The animals were anesthetized using sodium pentobarbital (55 mg/kg) administered intraperitoneally. The bile duct was cannulated using 22-gauge polyethylene tubing. The cannula was inserted into the duct about 1 cm from the duodenum and tied snugly in place. After threading through the shoulder, the cannula was passed from the rat to the swivel inside a metal torque-transmitting tether, which was attached to a rodent jacket around the animal's chest. The cannula was directed from the rat to a Gilson microfraction collector (Middleton, Wis.) by a fluid swivel mounted above the metabolic cage. Bile samples were collected at 3 hour intervals for 24 hours. The urine sample was taken at 24 hours and handling was as previously described. (Bergeron, R. J., et al., J. Med. Chem. 34:2072-2078 (1991).
as §1, §2

[5] = Quenching of the ABTS radical cation; settings: Table 5; 6-min reaction, initial OD 1.000

Compound	% bile (of iron excreted), rodents (iron [1]; 150 μmol/kg po, n = 3) [%]	% urine (of iron excreted), rodents (iron [1]; 150 μmol/kg po, n = 3) [%]	efficiency in rodents (%) (iron [1]; 150 μmol/kg po, n = 3)	% bile (of iron excreted), rodents (iron [1]; 150 μmol/kg sc, n = 6) [%]	% urine (of iron excreted), rodents (iron [1]; 150 μmol/kg sc, n = 6) [%]	efficiency in rodents (%) (iron [1]; 150 μmol/kg sc, n = 6)	effect on ascorbate-mediated reduction of Fe(III) (in words) [2]	% stool (of iron excreted), monkeys (iron [3]) [%]	% urine (of iron excreted), monkeys (iron [3]) [%]	efficiency in monkeys (%) (iron [3])	% bile (of iron excreted), rodents (iron [4]; 300 μmol/kg po) [%]	% urine (of iron excreted), rodents (iron [4]; 300 μmol/kg po) [%]	efficiency in rodents (%) (iron [4]; 300 μmol/kg po)	% bile (of iron excreted), rodents (iron [4]; 300 μmol/kg sc) [%]	% urine (of iron excreted), rodents (iron [4]; 300 μmol/kg sc) [%]	efficiency in rodents (%) (iron [4]; 300 μmol/kg sc)	Slope × 10^3 OD units/μM (ABTS radical cation quenching) [5]
CC(=O)N(O)CCCCCNC(=O)CCC(=O)N(O)CCCCCNC(=O)CCC(=O)N(O)CCCCCN [DFO, Desferrioxamine B, reference compound]	87	13	1.1 ± 0.6^c %	75	25	2.8 ± 0.7	inhibited; also recorded: significant inhibition										
O=C(O)[C@H]1CSC(c2ccc(O)cc2O)=N1 [4′-(HO)-DADMDFT, 4′-hydroxydesazadesmethyldesferrithiocin]							significant protection	75	25	5.3±1.7% and 5.3 ± 1.7^g %	100	0	2.9±2.8	90	10	2.1±0.9	−102 × 10^3 OD units/μM
